What is called IC50 is the concentration needed to halve the response being measured. A low value points to inhibition by little substance. The term EC50 denotes the concentration giving half of the maximal effect. Higher therefore signals weaker potency.

For assay [1], the target named is T1, Receptor-interacting serine/threonine-protein kinase 1 (Homo sapiens, UniProt Q13546).
T1 sequence (Q13546 whole entry): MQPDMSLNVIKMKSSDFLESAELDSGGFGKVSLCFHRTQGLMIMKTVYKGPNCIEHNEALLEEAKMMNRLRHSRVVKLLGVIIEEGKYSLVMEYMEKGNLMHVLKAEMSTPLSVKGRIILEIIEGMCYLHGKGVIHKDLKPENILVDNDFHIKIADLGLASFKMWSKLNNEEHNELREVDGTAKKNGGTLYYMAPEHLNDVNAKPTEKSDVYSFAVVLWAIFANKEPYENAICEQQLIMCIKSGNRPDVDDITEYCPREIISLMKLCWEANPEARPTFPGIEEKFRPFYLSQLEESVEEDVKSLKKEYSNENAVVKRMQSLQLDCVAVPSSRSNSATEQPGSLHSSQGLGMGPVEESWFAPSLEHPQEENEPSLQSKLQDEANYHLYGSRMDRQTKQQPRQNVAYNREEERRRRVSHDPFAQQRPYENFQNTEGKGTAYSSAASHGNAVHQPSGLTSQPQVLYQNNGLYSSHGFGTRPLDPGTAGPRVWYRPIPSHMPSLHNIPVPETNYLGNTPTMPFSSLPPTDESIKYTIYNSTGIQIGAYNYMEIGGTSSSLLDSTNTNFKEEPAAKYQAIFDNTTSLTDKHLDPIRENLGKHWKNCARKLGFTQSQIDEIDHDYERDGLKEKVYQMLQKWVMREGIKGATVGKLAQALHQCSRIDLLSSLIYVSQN

The next assay deals with MEF. The assay is described as follows: cells. The note with it: Mus musculus, 24 h.
The next assay concerns HT-22. The assay is described as follows: cells. The note with it: Mus musculus, HT-22, 24 h.
The test system of the next assay is L929. The experiment in a line: cells. The conditions noted are these: Mus musculus.

Turning to `O=C(c1cc2c(-c3ccc(F)cc3)cccc2s1)N1CCOCC1`, half-maximal inhibition in assay [1] (IC50) was put at 110 nM.
Take `CC(C)(C)c1cc(NC(=O)Nc2ccc(-c3cn4c(n3)sc3cc(OCCN5CCOCC5)ccc34)cc2)no1` [QUIZARTINIB]: the EC50 stood at 66.5 µM in the assay with MEF and 194 nM with HT-22.
For `CCCS(=O)(=O)Nc1ccc(F)c(C(=O)c2c[nH]c3ncc(-c4ccc(Cl)cc4)cc23)c1F` [VEMURAFENIB], in the assay on L929, the response was half-maximal at 3.75 µM (EC50).

The values are drawn from ChEMBL document CHEMBL5505961, “RIPK1 inhibitors: A key to unlocking the potential of necroptosis in drug development” (Eur J Med Chem, 2024).
